Measured values taken from patent US11786597B2, “Ionic liquids for transdermal drug delivery” (priority 2013, dated 2023).
Like-named read-outs stand apart in the source and are kept apart here. Marks after values point to notes of the source that are not given here.

Assays:
[1] = Determination of lipophilicity (octanol/water distribution by UV absorbance); assay type: physicochemical; conditions: for percent in octanol: after extraction with water
Description: A 250 mL volume of n-octanol was shaken with 100 mL of ddH2O and left overnight. […]
The absorption of the octanol layer and water layers were measured and compared with the absorbance of the stock solutions. Measurements were repeated three times and the distribution coefficients were reported as the average. The percent of IL in octanol was calculated as the absorbance of the octanol layer after extraction divided by the absorbance of IL in octanol before extraction. The water/octanol distribution coefficient was calculated as the logarithm of the percent of IL in octanol divided by the percent of IL in water.

[2] = Calculations of molarity and ionic strength; assay type: physicochemical; conditions: neat IL, Table 5
porcine skin [3] = assay: Skin transport of 3H-Mannitol in Franz diffusion cell; assay type: in vitro ADME
Description: (§1) FIG. 1 is a schematic of the skin transport experiment set-up and analysis. Porcine skin was loaded into the Franz diffusion cell (FDC) with the stratum corneum (SC) facing up. Skin was incubated in contact with 3H-labeled drug dissolved in donor solution for 24 hrs, at 37° C., with stirring. After 24 hrs the donor solution was removed and skin thoroughly washed. The SC was separated from the epidermis by tape stripping. Ten tape strips were applied, each tape corresponding to 1 “layer” of SC. Ten tape strips were assumed to remove the entire SC. Epidermis was separated from dermis using a razor blade. Acceptor solution was collected, and drug transport into various tissue layers was quantified by scintillation counter.
3H-labeled Mannitol and Cefadroxil were obtained from American Radiolabeled Chemicals, Inc. and Moravek, respectively. FDCs were used to assess the transport enhancement of ionic liquids using a previously established protocol. Karande, et al., “Discovery of transdermal penetration enhancers by high-throughput screening”, Nat Biotechnol, 22(2): 192-7 (2004). Briefly, the acceptor chamber was filled with degassed PBS and a small stir bar added. Thawed porcine skin was clamped in place between the acceptor and donor chambers with the SC facing up. Care was taken to ensure no air bubbles resided in the acceptor chamber. Ionic liquids or PBS (control) were spiked with 3H-labeled drug (Mannitol and Cefadroxil) to a final concentration of 10 μCi/ml. 300 μL of donor solution was added to the donor chamber and incubated in contact with the SC for 24 hr, at 37° C., with stirring.
After 24 hr, the donor solution was removed, and the skin was thoroughly washed and dried.
SC was separated from epidermis by tape stripping. Ten tape strips were performed in an identical fashion, with each tape corresponding to 1 SC “layer”. Ten strips were assumed to remove the majority of the SC. Epidermis was separated from dermis with a razor blade, and the acceptor solution was collected from the acceptor chamber. Samples from each tissue layer and acceptor solution were dissolved in Soluble (Perkin Elmer, Waltham, MA) overnight and the concentration of radiolabeled solute was measured using a scintillation counter (Packard Tri-Carb 2100 TR, Meriden, CT).

[4] = test system: Normal human bronchial epithelial (NHBE) cells; assay: WST-1 proliferation assay, 24 h exposure to diluted ILs; conditions: solubilized in culture medium
Description: Normal human bronchial epithelial (NHBE) cells were purchased (Lonza, Walkersville, MD) and cultured using bronchial epithelial cell growth media (BEGM, Clonetics Bullet Kit, Lonza, Walkersville, MD) on 100 mm tissue culture treated Petri dishes (Santa Cruz Biotechnologies, Santa Cruz, CA) coated with 50 μg/mL type I rat tail collagen (BD Biosciences, Bedford, MA). Cells were stored in an incubator with a humidified atmosphere at 37° C. and 5% CO2. Cells were fed two times weekly and passaged via trypsinization. Experimentation was performed in triplicate on cells harvested from passages 3 to 7.
NHBE cells were plated in 96-well tissue culture plates at a concentration of 1.5×10^4 cells/well in a volume of 200 μL and allowed to acclimate overnight. On the day of experimentation, treatment plates were prepared using stock ionic liquid diluted in BEGM and then serially diluted 3-fold for a total of 7 concentrations. The 96-well plates containing cells were then aspirated and the treatments (150 μL/well) were carefully transferred from the prep plate to the cells. Cells were exposed to the ionic liquids for 24 hours. Two hours prior to the end of the exposure time, positive control cell wells were aspirated, and a solution of 1% Triton-100 (150 μL/well) was added.
To assess cellular proliferation, water-soluble tetrazolium (WST-1) reagent (Clontech, Mountain View, CA) was added directly to cells, at a 1:10 dilution of the remaining media volume (7.5 μL of WST-1 reagent was added per 75 μL remaining cell culture media). NHBE cells exposed to media only and 1% Triton in BEGM were included as controls. Ionic liquid controls at the highest concentrations tested were included in wells without cells to rule out ionic liquid/assay reagent interference.

Conductivity of neat IL = assay type: physicochemical
Description: (§2) Determinations of conductivity were made on an ION450 benchtop meter (Radiometer Analytical) with a 2-pole electrode designed for use in viscous liquids (Radiometer Analytical CDC241-9) and calibrated with KCl. Conductivity was measured three times per sample on stirred 3 mL volumes of neat IL at 25° C. Density was measured three times per IL using a 1 mL volumetric flask and an analytical balance.

[5] = Density (volumetric flask and balance); assay type: physicochemical
Description: as §2

[6] = Abbott et al. 2006; cited from earlier work
[7] = Solubility in water (physical characterization); conditions: 25° C.
[8] = Viscosity (Viscolab 3000 viscometer); assay type: physicochemical
Description: Viscosity was measured on 1 mL samples with a Viscolab 3000 viscometer (Cambridge Viscosity, Medford, MA). […] Low-temperature differential scanning calorimetry (DSC) was performed on a DSC882e instrument (Mettler-Toledo Inc., Columbus, Ohio) under N2 atmosphere over two complete scans of a temperature range of −60 to 120° C. with a ramp rate of 10° C. per minute and a sample size of 18-21 mg in an aluminum crucible.

porcine skin [9] = assay: Skin transport of 3H-Cefadroxil in Franz diffusion cell; assay type: in vitro ADME; conditions: spiked with Cefadroxil
Description: as §1
3H-labeled Mannitol and Cefadroxil were obtained from American Radiolabeled Chemicals, Inc. and Moravek, respectively. FDCs were used to assess the transport enhancement of ionic liquids using a previously established protocol. Karande, et al., “Discovery of transdermal penetration enhancers by high-throughput screening”, Nat Biotechnol, 22(2): 192-7 (2004). […]
SC was separated from epidermis by tape stripping. […] Samples from each tissue layer and acceptor solution were dissolved in Soluble (Perkin Elmer, Waltham, MA) overnight and the concentration of radiolabeled solute was measured using a scintillation counter (Packard Tri-Carb 2100 TR, Meriden, CT).

C[N+](C)(C)CCO.NC(N)=O.NC(N)=O.[Cl-] [LANL-6, urea-choline]
partitioning into octanol [1]: partitioned poorly into octanol
percent in octanol ([1]; Table 3): 24 +/− 8%
log Po/w ([1]; octanol/water, Table 3): −0.51
ionic strength [2]: 2.32 M
molarity [2]: 4.65 M
drug permeation into the SC (porcine skin [3]; 3H-Mannitol, 24 hr, 37° C.): inhibited drug permeation into the SC
toxicity to human primary cells [4]: low toxicity
conductivity (Conductivity of neat IL; 25° C.): 0.580 mS/cm
conductivity (Conductivity of neat IL; Table 5): 0.580^a mS/cm
density ([5]; 25° C.): 1.21 g/mL
density ([5]; Table 5): 1.21 g/mL
viscosity, literature value at 40° C. [6]: 169 cP
solubility in water [7]: miscible
viscosity ([8]; 25° C.): 1390 cP
viscosity at 40° C. ([8]; 40° C.): 170 cP
viscosity ([8]; Table 5): 1386^a cP
viscosity ([8]; text b171): 1390 cP

choline geranate [LANL-21]
log Po/w [1]: 0.28
percent in octanol ([1]; Table 3): 66 +/− 3%
partitioning into the dermis and acceptor solution versus control (PBS) (porcine skin [9]): 15-20 times
ionic strength [2]: 3.39 M
molarity [2]: 2.26 M
loss/partitioning of solute to the acceptor solution (porcine skin [3]; 3H-Mannitol): enhanced partitioning into the acceptor solution
transport enhancement into/through all layers of the skin (porcine skin [3]; 3H-Mannitol, relative to PBS control): 5-15 fold
skin transport properties (porcine skin [3]; materials in lower right portion of Walden plot): best skin transport properties
conductivity (Conductivity of neat IL; 25° C.): 0.0431 mS/cm
conductivity (Conductivity of neat IL; Table 5): 0.0431 mS/cm
conductivity (Conductivity of neat IL; text b172): 0.04 mS/cm
density ([5]; 25° C.): 0.990 g/mL
density ([5]; Table 5): 0.990 g/mL
viscosity ([8]; 25° C.): 1345 cP
viscosity ([8]; Table 5): 1345 cP
